According to patent US10703757B2, “Compounds and methods for CDK8 modulation and indications therefor” (Plexxikon Inc., priority 2016, dated 2020):

What was measured:
[1] = test system: CDK8 (phosphorylation of STAT1 at serine 727 in A549 cells); experiment: Cell based Phospho-STAT1 assay (IFNγ-stimulated A549 cells, AlphaLISA); settings: Homo sapiens, A549, A549 cells, phospho-STAT1 after IFNγ stimulation
How it was run: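 A549 cells given serial compound dilutions for 1 h at 37 °C, then stimulated with IFNγ at 10 ng/mL final for 30 min. Lysate STAT1 Ser727 phosphorylation measured by AlphaLISA; % inhibition vs stimulated/unstimulated DMSO controls, IC50 by nonlinear regression.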

[2] = test system: CDK8 (TCF/LEF luciferase reporter in HCT116 cells); experiment: Cell based TCF/LEF reporter assay (HCT116+TCF/LEF luciferase); settings: Homo sapiens, HCT-116, 24 h
From the text: Determine Inhibitor Activity Against CDK8 in Cell Based TCF/LEF Reporter Assay
The colorectal carcinoma cell line HCT116 was stably transduced with lentivirus encoding the TCF/LEF promoter upstream of a luciferase reporter gene (Qiagen) and single cell clones expressing this construct (referred to as HCT116+TCF/LEF) were isolated. HCT116 express endogenous mutant β-catenin^3, resulting in up-regulation of transcription through the TCF/LEF promoter. Expression of the TCF/LEF reporter construct in HCT116 results in constitutive expression of luciferase. Treatment of the cells with inhibitors of components of the β-catenin signaling pathway (such as CDK8) results in decreased expression of luciferase. The assay is performed as follows. The HCT116+TCF/LEF cell line is seeded in a 96 well plate in 50 μL of culture media at 1×10^4 cells/well and incubated at 37° C. overnight. Serial dilutions of compounds (in total volume of 50 μL culture media) are added to the cells and incubated at 37° C. for 24 hours. 4 wells of DMSO treated cells serve as high controls and cells treated with 10 uM of the reference compound CCT251545 (a known CDK8 inhibitor)^4 serve as low controls. The viability of the cells is assayed by the addition of […] reagent (Promega) followed by 30 minute incubation at 37° C. and quantification of the fluorescent signal (Ex400/Em505). The luciferase expression is then assayed by the addition of 25 μL ONE-Glo reagent (Promega) followed by 10 minute incubation at room temperature and quantification of the luminescence signal. The luminescence signal is normalized to the fluorescence signal to correct for any loss in cell viability over the 24 hour compound incubation period. The percentage inhibition at individual concentrations relative to high and low controls is calculated. The data are analyzed by using nonlinear regression to generate IC50 values.

SMILES	IC50 [1] [nM]	IC50 [2] [nM]
N#CC1CC=C(c2nccn3ncc(-c4ccc(-c5cnn(CCF)c5)cc4)c23)CC1 (stereo not shown) [Compound P-0036, 4-(3-(4-(1-(2-fluoroethyl)-1H-pyrazol-4-yl)phenyl)pyrazolo[1,5-a]pyrazin-4-yl)cyclohex-3-ene-1-carbonitrile]	0.1 to 100	0.1 to 100
N#CC1CC=C(c2nccn3ncc(-c4ccc(OCC5CC5)c(Cl)c4)c23)CC1 (stereo not shown) [Compound P-0038, 4-(3-(3-chloro-4-(cyclopropyl-methoxy)phenyl)pyrazolo[1,5-a]pyrazin-4-yl)cyclohex-3-ene-1-carbonitrile]	0.1 to 100	0.1 to 100
N#CC1CC=C(c2nccn3ncc(-c4ccc(OCc5ccccc5)c(F)c4)c23)CC1 (stereo not shown) [Compound P-0039, 4-(3-(4-(benzyloxy)-3-fluorophenyl)pyrazolo[1,5-a]pyrazin-4-yl)cyclohex-3-ene-1-carbonitrile]	100 to 1000	100 to 1000
CC(C)(O)c1ccc(-c2cnn3ccnc(C4=CCC(C#N)CC4)c23)cc1 (stereo not shown) [Compound P-0040, 4-(3-(4-(2-hydroxypropan-2-yl)phenyl)pyrazolo[1,5-a]pyrazin-4-yl)cyclohex-3-ene-1-carbonitrile]	0.1 to 100	0.1 to 100
COc1ccc(-c2cnn3ccnc(C4=CCC(C#N)CC4)c23)cc1Cl (stereo not shown) [Compound P-0041, 4-(3-(3-chloro-4-methoxyphenyl)pyrazolo[1,5-a]pyrazin-4-yl)cyclohex-3-ene-1-carbonitrile]	0.1 to 100	0.1 to 100
CC(C)(O)Cn1cc(-c2ccc(-c3cnn4ccnc(C5=CCC(C#N)CC5)c34)cc2Cl)cn1 (stereo not shown) [Compound P-0042, 4-(3-(3-chloro-4-(1-(2-hydroxy-2-methylpropyl)-1H-pyrazol-4-yl)phenyl)pyrazolo[1,5-a]pyrazin-4-yl)cyclohex-3-ene-1-carbonitrile]	0.1 to 100	0.1 to 100
CS(=O)(=O)Nc1ccc(-c2cnn3ccnc(C4=CCC(C#N)CC4)c23)cc1 (stereo not shown) [Compound P-0045, N-(4-(4-(4-cyanocyclohex-1-en-1-yl)pyrazolo[1,5-a]pyrazin-3-yl)phenyl)methanesulfonamide]	100 to 1000	0.1 to 100
CC(C)(C#N)Cn1cc(-c2ccc(-c3cnn4ccnc(C5CCC(C#N)CC5)c34)cc2)cn1 (stereo not shown) [Compound P-0046, (1s,4s)-4-(3-(4-(1-(2-cyano-2-methylpropyl)-1H-pyrazol-4-yl)phenyl)pyrazolo[1,5-a]pyrazin-4-yl)cyclohexane-1-carbonitrile]	0.1 to 100	0.1 to 100
CN(C)CCn1cc(-c2ccc(-c3cnn4ccnc(C5=CCC(C#N)CC5)c34)cc2)cn1 (stereo not shown) [Compound P-0047, 4-[3-[4-[1-(2-dimethylaminoethyl)pyrazol-4-yl]phenyl]pyrazolo[1,5-a]pyrazin-4-yl]cyclohex-3-ene-1-carbonitrile]	0.1 to 100	0.1 to 100
CC(C)(C#N)Cn1cc(-c2ccc(-c3cnn4ccnc(C5=CCC(C#N)CC5)c34)cc2)cn1 (stereo not shown) [Compound P-0048, 4-(3-(4-(1-(2-cyano-2-methylpropyl)-1H-pyrazol-4-yl)phenyl)pyrazolo[1,5-a]pyrazin-4-yl)cyclohex-3-ene-1-carbonitrile]	0.1 to 100	0.1 to 100
N#CC1CC=C(c2nccn3ncc(-c4ccc(-c5cnn(CCN6CCCC6)c5)cc4)c23)CC1 (stereo not shown) [Compound P-0049, 4-(3-(4-(1-(2-(pyrrolidin-1-yl)ethyl)-1H-pyrazol-4-yl)phenyl)pyrazolo[1,5-a]pyrazin-4-yl)cyclohex-3-ene-1-carbonitrile]	0.1 to 100	0.1 to 100
N#CC1CCC(c2nccn3ncc(-c4ccc(-c5cnn(CC6(C#N)CC6)c5)cc4)c23)CC1 (stereo not shown) [Compound P-0050, (1s,4s)-4-(3-(4-(1-((1-cyanocyclopropyl)methyl)-1H-pyrazol-4-yl)phenyl)pyrazolo[1,5-a]pyrazin-4-yl)cyclohexane-1-carbonitrile]	0.1 to 100	0.1 to 100
N#CC1CC=C(c2nccn3ncc(-c4ccc(-c5cnn(CCN6CCOCC6)c5)cc4)c23)CC1 (stereo not shown) [Compound P-0051, 4-(3-(4-(1-(2-morpholinoethyl)-1H-pyrazol-4-yl)phenyl)pyrazolo[1,5-a]pyrazin-4-yl)cyclohex-3-ene-1-carbonitrile]	0.1 to 100	0.1 to 100
CC(C)(C#Cc1cccn2ncc(-c3ccc(-c4cnn(CC5(C#N)CC5)c4)cc3)c12)C(N)=O [Compound P-0052, 4-(3-(4-(1-((1-cyanocyclopropyl)methyl)-1H-pyrazol-4-yl)phenyl)pyrazolo[1,5-a]pyridin-4-yl)-2,2-dimethylbut-3-ynamide]	0.1 to 100	0.1 to 100
CC1(COc2ccc(-c3cnn4ccnc(C5=CCC(C#N)CC5)c34)cc2)COC1 (stereo not shown) [Compound P-0055, 4-(3-(4-((3-methyloxetan-3-yl)methoxy)phenyl)pyrazolo[1,5-a]pyrazin-4-yl)cyclohex-3-ene-1-carbonitrile]	0.1 to 100	0.1 to 100
Cc1nc2cc(-c3cnn4ccnc(C5=CCC(C#N)CC5)c34)ccc2[nH]1 (stereo not shown) [Compound P-0056, 4-(3-(2-methyl-1H-benzo[d]imidazol-5-yl)pyrazolo[1,5-a]pyrazin-4-yl)cyclohex-3-ene-1-carbonitrile]	0.1 to 100	0.1 to 100
N#CC1CC=C(c2nccn3ncc(-c4ccc(OCCOC5CCS(=O)(=O)CC5)cc4)c23)CC1 (stereo not shown) [Compound P-0057, 4-(3-(4-(2-((1,1-dioxidotetrahydro-2H-thiopyran-4-yl)oxy)ethoxy)phenyl)pyrazolo[1,5-a]pyrazin-4-yl)cyclohex-3-ene-1-carbonitrile]	0.1 to 100	0.1 to 100
N#CC1CCC(c2nccn3ncc(-c4ccc(OCCOC5CCOCC5)cc4)c23)CC1 (stereo not shown) [Compound P-0058, (1s,4s)-4-(3-(4-(2-((tetrahydro-2H-pyran-4-yl)oxy)ethoxy)phenyl)pyrazolo[1,5-a]pyrazin-4-yl)cyclohexane-1-carbonitrile]	0.1 to 100	0.1 to 100
Cn1cc(-c2ccc(-c3cnn4ccnc(C5CCC(C#N)CC5)c34)cc2)cn1 (stereo not shown) [Compound P-0059, (1s,4s)-4-(3-(4-(1-methyl-1H-pyrazol-4-yl)phenyl)pyrazolo[1,5-a]pyrazin-4-yl)cyclohexane-1-carbonitrile]	0.1 to 100	0.1 to 100
CCCS(=O)(=O)Nc1ccc2cc(-c3cnn4ccnc(C5=CCC(C#N)CC5)c34)ccc2c1 (stereo not shown) [Compound P-0060, N-(6-(4-(4-cyanocyclohex-1-en-1-yl)pyrazolo[1,5-a]pyrazin-3-yl)naphthalen-2-yl)propane-1-sulfonamide]	0.1 to 100	0.1 to 100
CCCS(=O)(=O)Nc1ccc2cc(-c3cnn4ccnc(C5CCC(C#N)CC5)c34)ccc2c1 (stereo not shown) [Compound P-0061, N-(6-(4-((1s,4s)-4-cyanocyclohexyl)pyrazolo[1,5-a]pyrazin-3-yl)naphthalen-2-yl)propane-1-sulfonamide]	0.1 to 100	0.1 to 100
CC(C)(O)Cn1ncc2cc(-c3cnn4ccnc(C5CCC(C#N)CC5)c34)ccc21 (stereo not shown) [Compound P-0062, (1s,4s)-4-(3-(1-(2-hydroxy-2-methylpropyl)-1H-indazol-5-yl)pyrazolo[1,5-a]pyrazin-4-yl)cyclohexane-1-carbonitrile]	0.1 to 100	0.1 to 100
N#CC1CC=C(c2nccn3ncc(-c4ccc5c(cnn5CC(F)(F)F)c4)c23)CC1 (stereo not shown) [Compound P-0063, 4-(3-(1-(2,2,2-trifluoroethyl)-1H-indazol-5-yl)pyrazolo[1,5-a]pyrazin-4-yl)cyclohex-3-ene-1-carbonitrile]	0.1 to 100	0.1 to 100
CC(C)(O)Cn1cc(-c2ccc(-c3cnn4ccnc(C5CCC(C#N)CC5)c34)cc2)cn1 (stereo not shown) [Compound P-0064, (1r,4r)-4-(3-(4-(1-(2-hydroxy-2-methylpropyl)-1H-pyrazol-4-yl)phenyl)pyrazolo[1,5-a]pyrazin-4-yl)cyclohexane-1-carbonitrile]	0.1 to 100	0.1 to 100
CCCS(=O)(=O)Nc1ccc2cc(-c3cnn4cccc(C#CC(C)(C)C(N)=O)c34)ccc2c1 [Compound P-0065, 2,2-dimethyl-4-(3-(6-(propylsulfonamido)naphthalen-2-yl)pyrazolo[1,5-a]pyridin-4-yl)but-2-ynamide]	0.1 to 100	100 to 1000
CC(C)(C#Cc1cccn2ncc(-c3ccc4c(cnn4C(F)F)c3)c12)C(=O)O [Compound P-0067, 4-(3-(1-(difluoromethyl)-1H-indazol-5-yl)pyrazolo[1,5-a]pyridin-4-yl)-2,2-dimethylbut-3-ynoic acid]	100 to 1000	0.1 to 100
